From publication PMC6204216 (Archives of biochemistry and biophysics, 2018)
Where two headings read alike, the source gives them in different places.

How the values were obtained:
AChE [1] = molecular target: T1, AChE (Homo sapiens, UniProt P22303); format: biochemical
Target sequence in this assay (P22303 32-617 isoform P22303-2 limits assumed): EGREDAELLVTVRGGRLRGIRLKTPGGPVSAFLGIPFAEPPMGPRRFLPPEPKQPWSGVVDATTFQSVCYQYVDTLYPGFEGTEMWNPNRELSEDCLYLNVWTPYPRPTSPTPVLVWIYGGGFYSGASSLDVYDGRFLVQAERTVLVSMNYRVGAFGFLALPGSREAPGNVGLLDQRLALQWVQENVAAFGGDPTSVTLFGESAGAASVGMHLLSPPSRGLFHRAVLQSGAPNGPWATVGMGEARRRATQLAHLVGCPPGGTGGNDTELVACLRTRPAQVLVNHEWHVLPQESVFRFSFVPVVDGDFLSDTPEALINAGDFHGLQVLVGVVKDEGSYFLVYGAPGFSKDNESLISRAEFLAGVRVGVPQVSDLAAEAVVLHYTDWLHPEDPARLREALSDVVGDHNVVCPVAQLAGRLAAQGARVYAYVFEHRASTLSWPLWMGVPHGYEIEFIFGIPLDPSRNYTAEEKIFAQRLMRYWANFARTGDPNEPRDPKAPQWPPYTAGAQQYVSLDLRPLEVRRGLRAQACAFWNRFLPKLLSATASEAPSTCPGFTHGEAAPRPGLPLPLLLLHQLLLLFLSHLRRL

AChE [2] = molecular target: T1, AChE; conditions: for k21 × 10^6 (decarbamoylation rate constant): 25 °C, absence of carbamate, mean ± SEM of n measurements
Target sequence in this assay (P22303 32-617 isoform P22303-2 limits assumed): as above

AChE [3] = molecular target: T1, AChE; experiment: Solvent deuterium oxide kinetic isotope effect on decarbamoylation; format: biochemical; conditions: 25 °C, pH 7.0, mean ± SE
Target sequence in this assay (P22303 32-617 isoform P22303-2 limits assumed): as above

AChE [4] = molecular target: T1, AChE; experiment: Literature carbamoylation and decarbamoylation of AChE; format: biochemical
Target sequence in this assay (P22303 32-614): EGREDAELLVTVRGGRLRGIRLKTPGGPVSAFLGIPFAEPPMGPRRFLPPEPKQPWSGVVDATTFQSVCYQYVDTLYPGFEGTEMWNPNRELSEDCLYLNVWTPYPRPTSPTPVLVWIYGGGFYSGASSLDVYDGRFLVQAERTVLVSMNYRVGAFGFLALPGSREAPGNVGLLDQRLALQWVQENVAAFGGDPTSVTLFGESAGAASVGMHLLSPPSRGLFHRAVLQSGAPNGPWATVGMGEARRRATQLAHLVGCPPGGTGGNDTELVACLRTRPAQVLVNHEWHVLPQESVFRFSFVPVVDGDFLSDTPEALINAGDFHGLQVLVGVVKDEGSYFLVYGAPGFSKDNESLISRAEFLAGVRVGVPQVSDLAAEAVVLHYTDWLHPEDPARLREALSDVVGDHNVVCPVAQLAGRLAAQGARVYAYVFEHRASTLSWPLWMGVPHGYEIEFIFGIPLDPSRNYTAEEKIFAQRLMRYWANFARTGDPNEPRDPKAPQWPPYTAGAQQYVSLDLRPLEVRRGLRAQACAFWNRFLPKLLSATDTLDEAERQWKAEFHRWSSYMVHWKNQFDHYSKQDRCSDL

AChE [5] = molecular target: T1, AChE; conditions: after carbamoylation of hAChE; cited from earlier work
Target sequence in this assay (P22303 32-617 isoform P22303-2 limits assumed): as the sequence (P22303 32-617 isoform P22303-2 limits assumed) above

AChE in rat brain = conditions: in vivo, 37 °C; cited from earlier work
AChE [6] = molecular target: T1, AChE; conditions: cited from earlier work
Target sequence in this assay (P22303 32-614): as the sequence (P22303 32-614) above

AChE [7] = molecular target: T1, AChE; experiment: Carbamoylation of AChE, qualitative observations; format: biochemical
Target sequence in this assay (P22303 32-614): as above

[8] = Stability of aqueous solutions; format: physicochemical
[9] = k12 data fitted to Eq. 1a, 25 °C

For CNC(=O)Oc1cccc([N+](C)(C)C)c1 [Monomethyl neostigmine], the k21 (AChE [1]; first protocol, Figure 2, paper calls estimates below 0.01 min^−1 unreliable) was 0.013 min⁻¹, the k2/KD (AChE [1]; fitted to Eq. 1a) was 16 ± 2 min^−1μM^−1 and the Kd (AChE [1]; [9]) was 3.2 ± 0.4 µM. For the same compound, the “k2 (carbamoylation)” value (AChE [1]; [9]) was 51 ± 2 min⁻¹, the “k21 × 10^6 (decarbamoylation rate constant)” value (AChE [2]; second protocol) was 12300 ± 400 min^−1 and the “R (fraction of total enzyme carbamoylated at reaction initiation)” value (AChE [2]; after spin column, Figure 3 fit) was 0.90. For the same compound, the k21 (AChE [2]; second protocol, Figure 3a fit, 0.25 mM acetylthiocholine) was 12.9 ± 0.02 × 10^−3 min^−1, the “k21 ^H2O / k21^D2O (deuterium oxide kinetic isotope effect on k21)” value (AChE [3]; listed as N-monomethyl HTMA) was 2.8 ± 0.2 and the “k21 ^H2O / k21^D2O (deuterium oxide kinetic isotope effect on k21)” value (AChE [3]; listed as N-monomethyl neostigmine) was 2.8.

In the case of C[N+](C)(C)CCOC(N)=O [carbamoyl choline], the “k21 larger than that for N-monomethylcarbamoylated AChE” value (AChE [4]) is reported as 10 fold.

In the case of C[C@@H]1CN(CCCCCCCCNC(=O)Oc2ccc3c(c2)[C@]2(C)CCN(C)[C@@H]2N3C)C[C@H](C)O1 [MF268], the k21 (AChE [5]) is given as “too small to be measured”.

In the case of CCN(CC)C(=O)F [N,N-diethyl F, N,N-diethylcarbamoyl fluoride], the “k21 × 10^6 (decarbamoylation rate constant)” value (AChE [2]; second protocol) is listed as 7 ± 1 min^−1, the “Recovery half time of AChE” value (AChE in rat brain) is listed as 182 h and the “Formation of N,N-diethylcarbamoylated AChE” value (AChE [6]) is listed as “failed to detect”.

For CCN(C)C(=O)Oc1cccc([N+](C)(C)C)c1 [N-ethyl-N-methyl HTMA], the “k21 × 10^6 (decarbamoylation rate constant)” value (AChE [2]; second protocol) was 150 ± 20 min^−1 and the “k21 ^H2O / k21^D2O (deuterium oxide kinetic isotope effect on k21)” value (AChE [3]) was 1.8 ± 0.2.

With CCN(CC)C(=O)Oc1cccc([N+](C)(C)C)c1 [N,N-diethyl HTMA] the “k21 × 10^6 (decarbamoylation rate constant)” value (AChE [2]; second protocol) was 16 ± 5 min^−1 and the “k21 ^H2O / k21^D2O (deuterium oxide kinetic isotope effect on k21)” value (AChE [3]) was 1.1 ± 0.2.

For CCN(C)C(=O)Cl [EMCC, N-ethyl–N-methylcarbamoyl chloride], the “Carbamoylation of AChE” value (AChE [7]) was “poorly” and the “Stability of aqueous solutions” value [8] was “very unstable”.

For CCN(CC)C(=O)OCC[N+](C)(C)C [N,N-diethylcarbamoyl choline, reference compound], the “Formation of N,N-diethylcarbamoylated AChE” value (AChE [6]) is listed as “failed to detect”.

With CNC(=O)Oc1cccc2ccccc12 [carbaryl, reference compound] the “k21 × 10^6 (decarbamoylation rate constant)” value (AChE [2]; second protocol) was 11300 ± 600 min^−1.

With CN(C)C(=O)Oc1cccc([N+](C)(C)C)c1 [neostigmine, reference compound] the “k21 × 10^6 (decarbamoylation rate constant)” value (AChE [2]; second protocol) was 3600 ± 300 min^−1 and the “k21 ^H2O / k21^D2O (deuterium oxide kinetic isotope effect on k21)” value (AChE [3]) was 2.4 ± 0.2.
